# Patent publication US20100267561A1, “HERBICIDAL PYRIDAZINONE DERIVATIVES” (priority 2007, published 2010)
# Columns and labels:
# Assay in all cases: Test E pre-/postemergence plant response
# Type in all cases: in vivo
# [1] = system: dallisgrass (Paspalum dilatatum); details: scale 0 to 100
# Description: (§1) Seeds of plant species selected from bermudagrass (Cynodon dactylon), Surinam grass (Brachiaria decumbens), large crabgrass (Digitaria sanguinalis), green foxtail (Setaria viridis), goosegrass (Eleusine indica), johnsongrass (Sorghum halepense), kochia (Kochia scoparia), pitted morningglory (Ipomoea lacunosa), purple nutsedge (Cyperus rotundus), common ragweed (Ambrosia elation), black mustard (Brassica nigra), guineagrass (Panicum maximum), dallisgrass (Paspalum dilatatum), barnyardgrass (Echinochloa crus-galli), southern (S.) sandbur (Cenchrus echinatus), common sowthistle (Sonchus oleraceous), prickly sida (Sida spinosa), Italian ryegrass (Lolium multiflorum), common purslane (Portulaca oleracea), broadleaf signalgrass (Brachiaria platyphylla), common groundsel (Senecio vulgaris), common chickweed (Stellaria media), Virginia (V.) dayflower (Commelina virginica), tropical (T.) spiderwort (Commelina benghalensis), annual bluegrass (Poa annua), naked crabgrass (Digitaria nuda), itchgrass (Rottboellia cochinchinensis), quackgrass (Elytrigia repens), Canada horseweed (Conyza canadensis), field bindweed (Convolvulus arvensis), spanishneedles (Bidens bipinnata), common mallow (Malva sylvestris) and Russian thistle (Salsola kali) were planted and treated preemergence with test chemicals formulated in a non-phytotoxic solvent mixture which included a surfactant. At the same time, plants selected from these weed species were treated with postemergence applications of some of the test chemicals formulated in the same manner. Plants ranged in height from 2 to 18 cm (1- to 4-leaf stage) for postemergence treatments.
# (§2) Treated plants and controls were maintained in a greenhouse for 14 to 21 days, after which time all species were compared to controls and visually evaluated. Plant response ratings, summarized in Table E, are based on a scale of 0 to 100 where 0 is no effect and 100 is complete control. A dash (-) response means no test result.
# [2] = system: naked crabgrass (Digitaria nuda); details: scale 0 to 100
# Description: as §1, §2
# [3] = system: bermudagrass (Cynodon dactylon); details: scale 0 to 100
# Description: as §1, §2
# [4] = system: itchgrass (Rottboellia cochinchinensis); details: scale 0 to 100
# Description: as §1, §2
# [5] = system: common chickweed (Stellaria media); details: Postemergence, scale 0 to 100
# Description: as §1, §2
# [6] = system: broadleaf signalgrass (Brachiaria platyphylla); details: scale 0 to 100
# Description: as §1, §2
# [7] = system: green foxtail (Setaria viridis); details: scale 0 to 100
# Description: as §1, §2
# [8] = system: barnyardgrass (Echinochloa crus-galli); details: scale 0 to 100
# Description: as §1, §2
# [9] = system: johnsongrass (Sorghum halepense); details: scale 0 to 100
# Description: as §1, §2
# [10] = system: annual bluegrass (Poa annua); details: scale 0 to 100
# Description: as §1, §2
# [11] = system: common mallow (Malva sylvestris); details: scale 0 to 100
# Description: as §1, §2
compound,measurement,setting,value
Cn1ncc(O)c(-c2nn(-c3ccc(Cl)cc3)cc2Br)c1=O [Compound 31],"Plant response rating, Dallisgrass","[1]; 8 g ai/ha, Preemergence",0
same,"Plant response rating, Dallisgrass","[1]; 16 g ai/ha, Preemergence",15
same,"Plant response rating, Dallisgrass","[1]; 31 g ai/ha, Preemergence",75
same,"Plant response rating, Dallisgrass","[1]; 62 g ai/ha, Preemergence",98
same,"Plant response rating, Dallisgrass","[1]; Postemergence, 8 g ai/ha",35
same,"Plant response rating, Dallisgrass","[1]; Postemergence, 16 g ai/ha",40
same,"Plant response rating, Dallisgrass","[1]; Postemergence, 31 g ai/ha",60
same,"Plant response rating, Dallisgrass","[1]; Postemergence, 62 g ai/ha",70
same,"Plant response rating, Crabgrass, Naked","[2]; 8 g ai/ha, Preemergence",0
same,"Plant response rating, Crabgrass, Naked","[2]; 16 g ai/ha, Preemergence",50
same,"Plant response rating, Crabgrass, Naked","[2]; 31 g ai/ha, Preemergence",98
same,"Plant response rating, Crabgrass, Naked","[2]; 62 g ai/ha, Preemergence",100
same,"Plant response rating, Crabgrass, Naked","[2]; Postemergence, 8 g ai/ha",30
same,"Plant response rating, Crabgrass, Naked","[2]; Postemergence, 16 g ai/ha",65
same,"Plant response rating, Crabgrass, Naked","[2]; Postemergence, 31 g ai/ha",75
same,"Plant response rating, Crabgrass, Naked","[2]; Postemergence, 62 g ai/ha",90
same,"Plant response rating, Bermudagrass","[3]; 8 g ai/ha, Preemergence",0
same,"Plant response rating, Bermudagrass","[3]; 16 g ai/ha, Preemergence",75
same,"Plant response rating, Bermudagrass","[3]; 31 g ai/ha, Preemergence",95
same,"Plant response rating, Bermudagrass","[3]; 62 g ai/ha, Preemergence",100
same,"Plant response rating, Bermudagrass","[3]; Postemergence, 8 g ai/ha",65
same,"Plant response rating, Bermudagrass","[3]; Postemergence, 16 g ai/ha",75
same,"Plant response rating, Bermudagrass","[3]; Postemergence, 31 g ai/ha",90
same,"Plant response rating, Bermudagrass","[3]; Postemergence, 62 g ai/ha",95
same,"Plant response rating, Itchgrass","[4]; 16 g ai/ha, Preemergence",0
same,"Plant response rating, Itchgrass","[4]; 31 g ai/ha, Preemergence",75
same,"Plant response rating, Itchgrass","[4]; 62 g ai/ha, Preemergence",75
same,"Plant response rating, Itchgrass","[4]; Postemergence, 8 g ai/ha",50
same,"Plant response rating, Itchgrass","[4]; Postemergence, 16 g ai/ha",60
same,"Plant response rating, Itchgrass","[4]; Postemergence, 31 g ai/ha",65
same,"Plant response rating, Itchgrass","[4]; Postemergence, 62 g ai/ha",70
same,"Plant response rating, Chickweed",[5]; 8 g ai/ha,0
same,"Plant response rating, Chickweed",[5]; 16 g ai/ha,0
same,"Plant response rating, Chickweed",[5]; 31 g ai/ha,0
same,"Plant response rating, Signalgrass","[6]; 16 g ai/ha, Preemergence",15
same,"Plant response rating, Signalgrass","[6]; 31 g ai/ha, Preemergence",65
same,"Plant response rating, Signalgrass","[6]; 62 g ai/ha, Preemergence",80
same,"Plant response rating, Signalgrass","[6]; Postemergence, 8 g ai/ha",65
same,"Plant response rating, Signalgrass","[6]; Postemergence, 16 g ai/ha",65
same,"Plant response rating, Signalgrass","[6]; Postemergence, 31 g ai/ha",75
same,"Plant response rating, Signalgrass","[6]; Postemergence, 62 g ai/ha",75
same,"Plant response rating, Foxtail, Green","[7]; 8 g ai/ha, Preemergence",0
same,"Plant response rating, Foxtail, Green","[7]; 16 g ai/ha, Preemergence",5
same,"Plant response rating, Foxtail, Green","[7]; 31 g ai/ha, Preemergence",60
same,"Plant response rating, Foxtail, Green","[7]; 62 g ai/ha, Preemergence",90
same,"Plant response rating, Foxtail, Green","[7]; Postemergence, 8 g ai/ha",50
same,"Plant response rating, Foxtail, Green","[7]; Postemergence, 16 g ai/ha",60
same,"Plant response rating, Foxtail, Green","[7]; Postemergence, 31 g ai/ha",70
same,"Plant response rating, Foxtail, Green","[7]; Postemergence, 62 g ai/ha",75
same,"Plant response rating, Barnyardgrass","[8]; 8 g ai/ha, Preemergence",0
same,"Plant response rating, Barnyardgrass","[8]; 16 g ai/ha, Preemergence",15
same,"Plant response rating, Barnyardgrass","[8]; 31 g ai/ha, Preemergence",75
same,"Plant response rating, Barnyardgrass","[8]; 62 g ai/ha, Preemergence",90
same,"Plant response rating, Barnyardgrass","[8]; Postemergence, 8 g ai/ha",35
same,"Plant response rating, Barnyardgrass","[8]; Postemergence, 16 g ai/ha",70
same,"Plant response rating, Barnyardgrass","[8]; Postemergence, 31 g ai/ha",75
same,"Plant response rating, Barnyardgrass","[8]; Postemergence, 62 g ai/ha",100
same,"Plant response rating, Johnsongrass","[9]; 16 g ai/ha, Preemergence",25
same,"Plant response rating, Johnsongrass","[9]; 31 g ai/ha, Preemergence",80
same,"Plant response rating, Johnsongrass","[9]; 62 g ai/ha, Preemergence",98
same,"Plant response rating, Johnsongrass","[9]; Postemergence, 8 g ai/ha",40
same,"Plant response rating, Johnsongrass","[9]; Postemergence, 16 g ai/ha",60
same,"Plant response rating, Johnsongrass","[9]; Postemergence, 31 g ai/ha",75
same,"Plant response rating, Johnsongrass","[9]; Postemergence, 62 g ai/ha",100
same,"Plant response rating, Bluegrass","[10]; 8 g ai/ha, Preemergence",0
same,"Plant response rating, Bluegrass","[10]; 16 g ai/ha, Preemergence",0
same,"Plant response rating, Bluegrass","[10]; 31 g ai/ha, Preemergence",0
same,"Plant response rating, Bluegrass","[10]; 62 g ai/ha, Preemergence",0
same,"Plant response rating, Bluegrass","[10]; Postemergence, 8 g ai/ha",0
same,"Plant response rating, Bluegrass","[10]; Postemergence, 16 g ai/ha",0
same,"Plant response rating, Bluegrass","[10]; Postemergence, 31 g ai/ha",0
same,"Plant response rating, Bluegrass","[10]; Postemergence, 62 g ai/ha",10
same,"Plant response rating, Mallow","[11]; 31 g ai/ha, Preemergence",0
same,"Plant response rating, Mallow","[11]; 62 g ai/ha, Preemergence",0
same,"Plant response rating, Mallow","[11]; Postemergence, 8 g ai/ha",0
same,"Plant response rating, Mallow","[11]; Postemergence, 16 g ai/ha",0
same,"Plant response rating, Mallow","[11]; Postemergence, 31 g ai/ha",0
same,"Plant response rating, Mallow","[11]; Postemergence, 62 g ai/ha",0
